This is an account of results in patent US6737237B1, “Antimicrobial agents, diagnostic reagents, and vaccines based on unique Apicomplexan parasite components” (Apicomplexan Therapeutics, LLC, priority 1999, dated 2004).

The structures appear in SMILES notation. In brackets after ≈: the same amount, converted by molar mass.

For data set [1], the system named is T. gondii tachyzoites (RH strain). As to the kind of experiment: microbe, parasite or virus in culture. Format: cell-based, Toxoplasma gondii. As for the experimental part:
The improvements are based on microscopic visual imspection of infected and inhibitor treated cultures, and on quantitation of nucleic acid synthesis of the parasite by measure intake of ^3H uracil onto the parasite's nucleic acid. Uracil is not utilized by mammalian cells. […] Only the RH strain tachyzoites, cultured for up to 72 hours, had been used in previously reported assays. The use of Me49, Ptg, and R5 mutant are unique aspects of the methods used in these assays in this invention.
(§1) In these assays toxicity of a candidate inhibitor was assessed by its ability to prevent growth of human foreskin fibroblasts (HFF) after 4 days and after 8 days as measured by tritiated thymidine uptake and microscopic evaluation. Confluent monolayers of HFF were infected with tachyzoites and bradyzoites. Inhibitor was added one hour later. Non-toxic doses were used in parasite growth inhibition assays. Parasite growth was measured by ability to incorporate tritiated uracil during the last 18 hours of culture.
(§2) First the toxicity of gabaculine was assessed by its ability to prevent growth of human foreskin fibroblasts (HFF) as measured by ^3H-thymidine uptake and microscopic evaluation. Non-toxic doses were used in parasite growth inhibition assays. in vitro parasite growth inhibition assays included confluent monolayers of HFF infected with tachyzoites (RH) or mutant Me49 (R5). Gabaculine was added 1 hour later. Parasite growth was measured by the ability to incorporate ^3H-uracil during the last 18 hours of culture. In addition, parasite growth was evaluated microscopically in Giemsa stained slides.
ii) in vitro Parasite Growth Inhibition Assays: Confluent monolayers of HFF cells, grown in 96-well plates are infected with T. gondii tachyzoites of the RH strain and serial dilutions of anti-microbial compound are applied 1 hour later. T. gondii growth is assessed in these cultures by their ability to incorporate tritiated uracil (2.5 μCi/well) added during the last 18 hours of culture. After harvesting cells with an automatic cell harvester, uracil incorporation is measured by liquid scintillation.

The test system of the next data set is C. parvum. As to the kind of experiment: C. parvum infection of MDBKF5D2 cell monolayers, immunofluorescence assay at 48 hours. Format: cell-based, Cryptosporidium parvum. As for the experimental part: C. parvum oocysts at 50,000/well were incubated at 37° C. (8% CO2) on confluent MDBKF5D2 cell monolayers in 96 well microtiter plates with the following concentrations of each drug. […] The level of infection of each well was determined and analyzed by an immunofluorescence assay at 48 hours using an antibody to C. parvum sporozoites made in rabbits at a concentration of 0.1%. Fluorescein-conjugated goat anti-rabbit antibody was used at a concentration of 1%.
(8% carbon dioxide) on confluent MDBKF5D2 cell monolayers in 96 well microtiter plates. The level of infection of each well was determined and analyzed by an immunofluorescence assay at 48 hours using as an antibody C. parvum sporozoite rabbit anti-serum (0.1%), and using fluorescein-conjugated goat anti-rabbit antibody (1%). Data are expressed as mean parasite count/field when 16 fields counted at 10× magnification “s.d. of the mean” (FIG. 6).

Data set [2] concerns D6 clone of Plasmodium falciparum. As to the kind of experiment: P. falciparum in vitro assay (Milhous et al., 1985), D6 clone. Format: cell-based. Particulars: D6, 66 h.
The test system of data set [3] is human foreskin fibroblasts (HFF). As to the kind of experiment: Toxicity: growth of fibroblasts, tritiated thymidine uptake and microscopic evaluation. Format: cell-based. To be noted: herbicide experiments. How it is done:
as §1, §2
d) Inhibitors: Inhibitor compounds are tested over a range of concentrations for toxicity against mammalian cells by assessing their ability to prevent cell growth as measured by tritiated thymidine uptake and inspection of the monolayer using microscopic evaluation. […]

The subject of the next data set is Toxoplasma gondii ACC. In words: ACC activity in T. gondii tachyzoite protein extracts (carboxyl incorporation from bicarbonate). Format: biochemical. The text has this:
In plants, genes encoding enzymes for fatty acid synthesis, including various subunits of ACC except one, are present in the nuclear genome and their protein products are imported and function in plastids. ACC, catalyzing the first committed step of de novo fatty acid biosynthesis, is a known selective target of aryloxyphenoxypropionate (“fops”) and cyclohexanedione (“dims”) herbicides in sensitive species. The molecular mechanism of inhibition/resistance of the enzyme is not know but there is a strong correlation between the enzyme structure and its origin. The high molecular weight multi-domain ACC that is localized in plastids of grasses is extremely sensitive to these herbicides. All of the multi-subunit chloroplast enzymes of dicot plants and bacteria as well as other multi-domain cytosolic ACCs, such as those from man, chicken, rat and yeast, are resistant. ACC activity is conveniently measured in vitro by the incorporation of the carboxyl group from bicarbonate into an acid-stable form using crude protein extracts after Sephadex G50 filtration. […] One band at 240 kDa corresponded to the expected size for a subunit of ACC, while another at 130 kDA corresponded to the size expected for pyruvate carboxylase (PC).
(§3) Structures of fops and dims were tested on the ACC-containing protein extracts of T. gondii described above. Three of the four fops were striking inhibitors of the activity, while none of the dims had any effect against the enzyme. […] Effects of the herbicides on uninfected fibroblasts and on T. gondii growth and replication were tested as previously described by Roberts et al., 1998 using incorporation of radiolabeled thymidine by growing fibroblasts to assess toxicity and incorporation of radiolabeled uracil to measure T. gondii growth and persistence. Anti-parasite activity and toxicity for four fops and one representative dim were determined. Pyrimethamine and sulfadiazine, antimicrobial agents which are known inhibitors of folate synthesis, were included as positive control. […] Consistent with the data for ACC activity in vitro, the inhibitory activity of the fops and the dim on T. gondii growth in fibroblasts was in the same concentration range. […] With regard to toxicity, fops are mildly toxic at the highest concentration, 400 μM. In separate experiments, the effect of Clodinafop on T. gondii was assessed by light microscopy. […] In this experiment, cultures were incubated for 2 more days without the inhibitor.

The test system of the next data set is Toxoplasma tachyzoites. As to the kind of experiment: Light microscopy of T. gondii infected fibroblasts treated with Clodinafop. Format: cell-based, Toxoplasma gondii. To be noted: for parasites in infected fibroblasts: 4-day treatment, one change of medium and inhibitor after 2 days, then 2 more days without inhibitor; for number of T. gondii cells in infected fibroblasts: two days. How it is done: as §3

Data set [4] relates to T. gondii. As to the kind of experiment: Assay for synergy in vitro: inhibitors alone and together on replication of T. gondii (uracil CPM). Format: cell-based, Toxoplasma gondii. To be noted: for CPM for B: Drug B alone: Sulfadiazine (6.25 μg/ml), Pyrimethamine (0.025 μg/ml), SHAM (0.78 μg/ml). The source says: The effect of enzymes in pathways “in parallel” are additive and in “series” are more than the additive effect of either inhibitor used alone (i.e., synergistic). […] The shikimate pathway produces 3,4-dihdroxybenzoate which is converted to ubiquinone, an essential component of the electron transport chain. Thus, NPMG, an inhibitor of EPSP-synthase, indirectly affects ubiquinone production and, thus, the electron transport chain. Similarly, heme is required for production of cytochromes in the electron transport chain. Thus, inhibition of heme production by gabaculine also indirectly affects the conventional electron transport chain. […] T. gondii growth is measured by their ability to incorporate tritiated uracil and is expressed as counts/minute (CPM).
g) Assays for Synergy in vitro: This is an assy in which ≦50% inhibitor concentrations of two antimicrobial agents are added alone and together to determine whether there is an additive, synergistic or inhibitory interaction. All other aspects of this assay are as described herein.

Data set [5] has as its system T. gondii. As to the kind of experiment: Effect of inhibitors on T. gondii infection in vivo (manifestations, parasitemia, brain cysts). Set-up: species or system mice. To be noted: mouse.
Protocol: Cyst numbers present in a suspension of brain are enumerated, or cyst numbers in formalin fixed paraffin embedded sections are quantitated.
c) Persistance of Cysts: C3H/He mice are infected orally with 100 cysts of T. gondii (Me49 strain). Inhibitors are administered to groups of mice from day 30 post infection to day 50 post infection. Cyst burden, mortality and pathology are compared in treated and control mice on days 30 and 50 post infection and in mice that receive antibody to gamma interferon which leads to recrudescence of disease.
A method to measure the amount of parasitemia in mouse peripheral blood has been developed. Briefly, the target for PCR amplification is the 35 fold repetitive B1 gene of T. gondii and the amplification was performed using primers previously reported. […] Competitive PCR was performed by spiking individual reactions (containing equal amounts of genomic DNA) with a dilution of the internal standard. Since this internal control contains the same primer template sequences, it competes with the B1 gene of T. gondii for primer binding and amplification. The sensitivity of the PCR reaction in each sample can be monitored. Following competitive PCR, the PCR products are distinguished by size and the amount of products generated by the target and internal standard can be compared on a gel. […]

For `Oc1cccc2cccnc12` [8-OH-quinoline, 8-hydroxyquinoline], the “activity against T. gondii (tachyzoites)” value in data set [1] is listed as “effective”. Further, the “approximate 95% C1 count (mean parasite count per field)” value is ~1300 with C. parvum (8-OH-quinoline 0.1 μg/ml, media alone ~1800); ~1100 in the data set with C. parvum (8-OH-quinoline 1 μg/ml, media alone ~1800); ~900 with C. parvum (8-OH-quinoline 10 μg/ml, media alone ~1800); ~300 in the data set with C. parvum (8-OH-quinoline 100 μg/ml, media alone ~1800). In addition, the midpoint of inhibition in data set [2], the IC50, lay at 1.2 µg/mL (≈ 8.29 µM). It took 1.88 µg/mL (≈ 13 µM) to reach the 90% level in data set [2] (IC90).

Regarding `C[C@@H](Oc1ccc(Oc2ncc(Cl)cc2F)cc1)C(=O)O` [Clodinafop], in data set [1] (10 μM), the “inhibition of growth of T. gondii in human fibroblasts (uracil incorporation)” value was determined as 70%. Besides, the “toxicity for fibroblasts (thymidine incorporation)” value in data set [3] was “not toxic”. The “inhibition of ACC activity” value came out at 50% in the data set with Toxoplasma gondii ACC (20 μM) and 90% in the data set with Toxoplasma gondii ACC (100 μM). In addition, the “parasites in infected fibroblasts” value in the data set on Toxoplasma tachyzoites (10 μM) was “No parasite cells were found”; in the data set on Toxoplasma tachyzoites (10 μM, listed as clodinafop), “complete eradication”. The results for the “number of T. gondii cells in infected fibroblasts” value with Toxoplasma tachyzoites (10 μM) and with Toxoplasma tachyzoites (100 μM) were “substantial reduction” and “almost complete removal”, respectively.

Consider `CC1(C)N=C(N)N=C(N)N1c1ccc(Cl)cc1` [Cycloguanil], for which the “combined effect of two inhibitors in vitro (additive or synergistic)” value in the data set on T. gondii [4] (T. gondii in culture) is “synergistic with NPMG”.

As to `CC(Oc1ccc(Oc2ccc(C(F)(F)F)cn2)cc1)C(=O)O` (centres unmarked) [Fluazifop], the “effect on T. gondii ACC activity in crude extracts” value in the data set with Toxoplasma gondii ACC was “relatively low inhibitory activity”.

In the case of `CC(Oc1ccc(Oc2ncc(C(F)(F)F)cc2Cl)cc1)C(=O)O` (centres unmarked) [Haloxyfop], the “inhibition of ACC activity” value in the data set with Toxoplasma gondii ACC (20 μM) is on record as 50%; in the data set with Toxoplasma gondii ACC (100 μM), 90%.

In the case of `CCc1nc(N)nc(N)c1-c1ccc(Cl)cc1` [Pyrimethamine], in the data set on T. gondii [4], the “CPM for B” value stood at 69217 ± 3253 CPM.

Take `CC(Oc1ccc(Oc2cnc3cc(Cl)ccc3n2)cc1)C(=O)O` (centres unmarked) [Quizalofop, ()-2-[4-[(6-chloro-2-quinoxalinyl)oxy]phenoxy]propanoic acid]: the “inhibition of ACC activity” value with Toxoplasma gondii ACC (20 μM) amounted to 50%; in the data set on Toxoplasma gondii ACC (100 μM) it was 90%.

For the molecule `O=C(NO)c1ccccc1O` [SHAM, Salicylhydroxamic acid], the “CPM restricted (tritiated uracil incorporation)” value in data set [1] (SHAM 0.16 μg/ml (0.19), 4 day, medium around 54,000 CPM) is on record as “around 50%”. Also, the “counts (tritiated uracil incorporation)” value in data set [1] (SHAM 0.78 μg/ml, 4 day, medium around 54,000, no RH around 1,000 CPM) is on record as “about 8,000 CPM”. For the same molecule, the “approximate 95% C1 count (mean parasite count per field)” value is reported as ~1200 with C. parvum (SHAM 0.1 μg/ml, 0.2% ETOH, media and ethanol ~1200); ~1100 in the data set on C. parvum (SHAM 1 μg/ml, 0.2% ETOH, media and ethanol ~1200); ~1100 in the data set with C. parvum (SHAM 10 μg/ml, 0.2% ETOH, media and ethanol ~1200); ~400 in the data set on C. parvum (SHAM 100 μg/ml, 0.2% ETOH, media and ethanol ~1200). The “CPM for B” value in the data set with T. gondii [4] is listed as 42993 ± 1098 CPM. The “parasitemia and number of brain cysts” value in the data set on T. gondii [5] was “affects parasitemia and number of brain cysts”.

On to `Nc1ccc(S(=O)(=O)Nc2ncccn2)cc1` [Sulfadiazine], for which the “growth of T. gondii reduced” value in data set [1] was “about 60%”. Moreover, the “CPM for B” value in the data set with T. gondii [4] is on record as 25026 ± 4365 CPM. In the data set with T. gondii [5], the “manifestations of infection in vivo” value was “reduced manifestations of infection”.

Turning to `NC[C@@H]1O[C@H](O[C@H]2[C@@H](O)[C@H](O[C@@H]3[C@@H](O)[C@H](N)C[C@H](N)[C@H]3O[C@H]3O[C@H](CO)[C@@H](O)[C@H](O)[C@H]3N)O[C@@H]2CO)[C@H](N)[C@@H](O)[C@@H]1O` [paromomycin], the “approximate 95% C1 count (mean parasite count per field)” value in the data set with C. parvum (PRM without ethanol, media alone ~1800) is ~200; in the data set on C. parvum (paromomycin (PRM) and ethanol, media and ethanol ~1200) it was ~100.
